Where a name gives a salt, the structure may show the parent alone.
System: basal gastric secretion output HCl
Test: gastric anti-secretory activity in rats, pylorus ligature technique
Assay type: in vivo, rat (Sprague-Dawley male)
Conditions: Column 4, rat, intraduodenal (i.d.), 4 hours, read-out: Antisecretory activ.: inhibition of basal gastric secretion output HCl (ED50)
Procedure: The gastric anti-secretory activity of the compound of the present invention was evaluated in rats by the pylorus ligature technique (H. Shay et al, Gastroenterology 5, 43 1945). Six Sprague-Dawley male rats (110-130 g body weight) for each group were used. Twenty-four hours before the test, the rats were deprived of food while water was maintained. On the day of operation, the pylorus was ligated under light ether anaesthesia. Four hours after the ligature the rats were sacrificed, the stomach secretion collected, centrifuged at 3500 r.p.m. for 10 minutes and the volume, less sediment, was determined. The amount of free hydrochloric acid in the gastric juice was determined by titration against 0.1N sodium hydroxide to an end point of pH 7. All the compounds were injected intraduodenally at the time of ligature. The results, expressed as ED50 mg/kg (the dose which reduced the output of hydrochloride acid by 50% in comparison with control rats) are reported in column 4 of Table 1.
With `CC(C)NC(=S)N1CCc2nc(N)sc2C1` [Example 2, 2-Amino-5-(isopropyl-thiocarbamoyl)-4,5,6,7-tetrahydrothiazolo[5,4-c]pyridine] the ED50 was 1 mg/kg. With `CNC(=O)N1CCc2nc(N)sc2C1` [Example 5, 2-Amino-5-(methyl-carbamoyl)-4,5,6,7-tetrahydrothiazolo[5,4-c]pyridine] the ED50 was greater than 5 mg/kg. In the case of `CC(C)NC(=S)N1CCc2nc(NC(=N)N)sc2C1` [Example 15, 2-Guanidino-5-(isopropyl-thiocarbamoyl)-4,5,6,7-tetrahydrothiazolo[5,4-c]pyridine], the ED50 is reported as less than 5 mg/kg. `CC(C)NC(=O)N1CCc2nc(NC(=N)N)sc2C1` [Example 16, 2-Guanidino-5-(isopropyl-carbamoyl)-4,5,6,7-tetrahydrothiazolo[5,4-c]pyridine] gave an ED50 of 0.33 mg/kg. With `N=C(N)Nc1nc2c(s1)CN(C(=O)NC1CC1)CC2` [Example 22, 2-Guanidino-5-(cyclopropyl-carbamoyl)-4,5,6,7-tetrahydrothiazolo[5,4,-c]pyridine] the ED50 was 1.7 mg/kg. `CNC(=C[N+](=O)[O-])NCCSCc1ccc(CN(C)C)o1` [Ranitidine, reference compound] gave an ED50 of 7 mg/kg.

System: gastric ulcers induced in rats by stress
Test: inhibition of stress ulcers in rats (restraint in water at 23° C. for 4 hours)
Assay type: in vivo, rat (Charles River male)
Conditions: po, rat, p.o. one hour before stress, number of ulcers
Procedure: The anti-ulcerogenic activity of the compound of the present invention is shown also by the fact that embodiments of the same are active in the test of inhibition of stress ulcers in rats (restraint in water at 23° C. for 4 hours), according to the method of M. Usardi et al. (Prostaglandins, 8, 43, 1974). The tested compounds were administered per os one hour before the stress. Six Charles River male rats (140±10 g body weight), which had fasted for 16 hours, were used for each experimental group. At the end of the stress, the rats were killed and the gastric ulcers evaluated by counting them. The inhibition of gastric ulcerations, evaluated as percentage inhibition of ulcer index (number of ulcers), was expressed as ED50.
For `CC(C)NC(=S)N1CCc2nc(N)sc2C1` [Example 2, 2-Amino-5-(isopropyl-thiocarbamoyl)-4,5,6,7-tetrahydrothiazolo[5,4-c]pyridine], the ED50 was 2.7 mg/kg. In the case of `CNC(=O)N1CCc2nc(N)sc2C1` [Example 5, 2-Amino-5-(methyl-carbamoyl)-4,5,6,7-tetrahydrothiazolo[5,4-c]pyridine], the ED50 is reported as greater than 25 mg/kg. Work on `CC(C)NC(=S)N1CCc2nc(NC(=N)N)sc2C1` [Example 15, 2-Guanidino-5-(isopropyl-thiocarbamoyl)-4,5,6,7-tetrahydrothiazolo[5,4-c]pyridine] yielded an ED50 of less than 50 mg/kg. `CC(C)NC(=O)N1CCc2nc(NC(=N)N)sc2C1` [Example 16, 2-Guanidino-5-(isopropyl-carbamoyl)-4,5,6,7-tetrahydrothiazolo[5,4-c]pyridine] gave an ED50 of 2.9 mg/kg. Compound `N=C(N)Nc1nc2c(s1)CN(C(=O)NC1CC1)CC2` [Example 22, 2-Guanidino-5-(cyclopropyl-carbamoyl)-4,5,6,7-tetrahydrothiazolo[5,4,-c]pyridine] has an ED50 of 20.2 mg/kg. In the case of `CNC(=C[N+](=O)[O-])NCCSCc1ccc(CN(C)C)o1` [Ranitidine, reference compound], the ED50 is reported as 6.2 mg/kg.

Target: T1, histamine H2-receptor (Cavia porcellus, UniProt P47747)
T1 construct: histamine-induced rate increase
T1 sequence (P47747 whole entry): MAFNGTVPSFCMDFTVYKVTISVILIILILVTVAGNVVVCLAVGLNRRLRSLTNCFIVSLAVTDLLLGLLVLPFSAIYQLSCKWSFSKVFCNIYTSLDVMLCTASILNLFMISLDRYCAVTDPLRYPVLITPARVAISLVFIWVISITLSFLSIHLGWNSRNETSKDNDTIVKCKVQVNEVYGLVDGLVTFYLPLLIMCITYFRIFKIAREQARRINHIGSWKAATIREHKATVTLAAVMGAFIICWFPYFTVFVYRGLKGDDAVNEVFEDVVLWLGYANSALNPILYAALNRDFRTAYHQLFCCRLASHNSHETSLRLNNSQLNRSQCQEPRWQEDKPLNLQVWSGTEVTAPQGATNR
Test: histamine H2-receptor antagonist activity in vitro on the guinea pig right atrium
Conditions: Column 5; guinea pig atria in vitro; screening dose 1 × 10^-5 M; 'More active' continues 'than Ranitid.'; active if it shifts histamine curve right at ≤1×10^-5 M
Procedure: The compound of the present invention was assayed for histamine H2 -receptor antagonist activity in vitro on the guinea pig right atrium. Male guinea pigs were killed by a blow on the head and the heart was quickly excised and placed in oxygenated Ringer Lock solution of the following composition (g/l): NaCl 9, KCl 0.42, CaCl2 0.24, NaHCO3 0.5, Glucose 1. Atria were dissected away from the rest of the heart, freed from connective tissue, suspended in a 20 ml organ bath containing Ringer Locke solution thermoregulated at 37° C., and carboxygenated with 95% O2 and 5% CO2. Atria spontaneously beating were allowed to adjust to the bath conditions for at least 30 minutes prior to the experiment. Histamine was added to the bath in cumulative fashion starting from 3×10^-7 M to 1×10^-4 M. The histamine-induced increase in atrial rate was allowed to plateau before the next successive concentration was added. After washing and waiting for the recovery of atria rate, a compound was added 5 minutes before repeating the cumulative dose response curve with histamine. A compound is considered an H2 -receptor antagonist if it is able to shift the dose response curve of histamine to the right at a concentration ≤1×10^-5 M. The results are reported in column 5 of Table 1.
In the case of `CC(C)NC(=S)N1CCc2nc(NC(=N)N)sc2C1` [Example 15, 2-Guanidino-5-(isopropyl-thiocarbamoyl)-4,5,6,7-tetrahydrothiazolo[5,4-c]pyridine], the Anti-H2 activ. is reported as “Active”. For `CC(C)NC(=O)N1CCc2nc(NC(=N)N)sc2C1` [Example 16, 2-Guanidino-5-(isopropyl-carbamoyl)-4,5,6,7-tetrahydrothiazolo[5,4-c]pyridine], the Anti-H2 activ. was “More active”. For `N=C(N)Nc1nc2c(s1)CN(C(=O)NC1CC1)CC2` [Example 22, 2-Guanidino-5-(cyclopropyl-carbamoyl)-4,5,6,7-tetrahydrothiazolo[5,4,-c]pyridine], the Anti-H2 activ. was “More active”.

System: not listed separately
Test: approximate acute toxicity (LD50) in the rat, single oral administration
Conditions: in vivo
Procedure: (§1) Considering that some anti-ulcer agents display, as does atropine, a remarkable but undesired anticholinergic activity, the compound of the present invention was also assessed for its antagonism against the syndrome induced by intraperitoneally (i.p.) administered oxotremorine in mice, according to the method described by G. P. Leszkovsky and L. Tardos (Europ. J. Pharmac. 1971, 15, 310). Given test compound embodiments were administered to groups of 5 male mice, 20-25 g body weight, at the screening dose of 100 mg/kg per os. The degree of peripheral cholinergic activation induced by oxotremorine was measured b salivation and lachrymation, and the degree of central cholinergic activation by the severity of tremors and hypothermia. […] The approximate acute toxicity (LD50) of the compounds of the invention was determined in the mouse and in the rat by single oral administration of increasing doses and measured on the seventh day after treatment. […] Ranitidine, the well known anti-ulcer agent, was used as comparison compound.
For `CC(C)NC(=O)N1CCc2nc(NC(=N)N)sc2C1` [Example 16, 2-Guanidino-5-(isopropyl-carbamoyl)-4,5,6,7-tetrahydrothiazolo[5,4-c]pyridine], the LD50 at 168 h was greater than 800 mg/kg. `N=C(N)Nc1nc2c(s1)CN(C(=O)NC1CC1)CC2` [Example 22, 2-Guanidino-5-(cyclopropyl-carbamoyl)-4,5,6,7-tetrahydrothiazolo[5,4,-c]pyridine] showed an LD50 at 168 h greater than 800 mg/kg. `CNC(=C[N+](=O)[O-])NCCSCc1ccc(CN(C)C)o1` [Ranitidine, reference compound] showed an LD50 at 168 h greater than 800 mg/kg.

System: not listed separately
Test: approximate acute toxicity (LD50) in the mouse, single oral administration
Conditions: in vivo
Procedure: as §1
`CC(C)NC(=S)N1CCc2nc(N)sc2C1` [Example 2, 2-Amino-5-(isopropyl-thiocarbamoyl)-4,5,6,7-tetrahydrothiazolo[5,4-c]pyridine] gave an LD50 at 168 h of 400 to 800 mg/kg. Compound `CNC(=O)N1CCc2nc(N)sc2C1` [Example 5, 2-Amino-5-(methyl-carbamoyl)-4,5,6,7-tetrahydrothiazolo[5,4-c]pyridine] has an LD50 at 168 h of 200 to 400 mg/kg. Work on `CC(C)NC(=S)N1CCc2nc(NC(=N)N)sc2C1` [Example 15, 2-Guanidino-5-(isopropyl-thiocarbamoyl)-4,5,6,7-tetrahydrothiazolo[5,4-c]pyridine] yielded an LD50 at 168 h of 400 to 800 mg/kg. `CC(C)NC(=O)N1CCc2nc(NC(=N)N)sc2C1` [Example 16, 2-Guanidino-5-(isopropyl-carbamoyl)-4,5,6,7-tetrahydrothiazolo[5,4-c]pyridine] showed an LD50 at 168 h of 200 to 400 mg/kg. With `N=C(N)Nc1nc2c(s1)CN(C(=O)NC1CC1)CC2` [Example 22, 2-Guanidino-5-(cyclopropyl-carbamoyl)-4,5,6,7-tetrahydrothiazolo[5,4,-c]pyridine] the LD50 at 168 h was greater than 800 mg/kg. For `CNC(=C[N+](=O)[O-])NCCSCc1ccc(CN(C)C)o1` [Ranitidine, reference compound], the LD50 at 168 h was greater than 800 mg/kg.

System: oxotremorine syndrome in the mouse
Test: not given
Conditions: in vivo, po, 100 mg/kg
Procedure: as §1
In the case of `CC(C)NC(=S)N1CCc2nc(N)sc2C1` [Example 2, 2-Amino-5-(isopropyl-thiocarbamoyl)-4,5,6,7-tetrahydrothiazolo[5,4-c]pyridine], the “Anticholinergic activ. (antagonism against oxotremorine syndrome)” value is reported as “Inactive”. With `CNC(=O)N1CCc2nc(N)sc2C1` [Example 5, 2-Amino-5-(methyl-carbamoyl)-4,5,6,7-tetrahydrothiazolo[5,4-c]pyridine] the “Anticholinergic activ. (antagonism against oxotremorine syndrome)” value was “Inactive”. In the case of `CC(C)NC(=S)N1CCc2nc(NC(=N)N)sc2C1` [Example 15, 2-Guanidino-5-(isopropyl-thiocarbamoyl)-4,5,6,7-tetrahydrothiazolo[5,4-c]pyridine], the “Anticholinergic activ. (antagonism against oxotremorine syndrome)” value is reported as “Inactive”. With `CC(C)NC(=O)N1CCc2nc(NC(=N)N)sc2C1` [Example 16, 2-Guanidino-5-(isopropyl-carbamoyl)-4,5,6,7-tetrahydrothiazolo[5,4-c]pyridine] the “Anticholinergic activ. (antagonism against oxotremorine syndrome)” value was “Inactive”. For `N=C(N)Nc1nc2c(s1)CN(C(=O)NC1CC1)CC2` [Example 22, 2-Guanidino-5-(cyclopropyl-carbamoyl)-4,5,6,7-tetrahydrothiazolo[5,4,-c]pyridine], the “Anticholinergic activ. (antagonism against oxotremorine syndrome)” value was “Inactive”. For `CNC(=C[N+](=O)[O-])NCCSCc1ccc(CN(C)C)o1` [Ranitidine, reference compound], the “Anticholinergic activ. (antagonism against oxotremorine syndrome)” value was “Inactive”.

Same assay, conditions: oxotremorine i.p., dose of atropine sulfate not given
For `CN1[C@@H]2CC[C@H]1C[C@@H](OC(=O)C(CO)c1ccccc1)C2` (stereo partly shown) [Atropine sulfate, reference compound], the “peripheral and central effects induced by oxotremorine” value was “suppressed both peripheral and central effects”.

System: ASA induced gastric ulcers in rats
Test: inhibition of acetyl salicyclic acid (ASA) induced gastric ulcers in rats
Assay type: in vivo, rat (male Sprague Dawley)
Conditions: po, 4 h, rat, p.o. 60 min before ASA 100 mg/kg, dose reducing ulcer index by 50%
Procedure: The anti-ulcerogenic activity of the present compound is shown, for example, by the fact that embodiments of the present compound are active in the test of inhibition of acetyl salicyclic acid (ASA) induced gastric ulcers in rats as described by M. Hemmati et al in Pharmacology, 9, 374, 1973. Male Sprague Dawley rats [Crl: CD (SD) BR] (Charles River Italy) weighing 190±10 g, which had fasted for 15 hours, but given free access to water, were administered ASA (100 mg/kg per os in 0.2 ml/100 g b.w.) 60 minutes after the oral treatment with the tested compounds. Gastric ulcerations were evaluated 4 hours after ASA treatment. The inhibition of gastric ulcerations, evaluated as percentage inhibition of ulcer index (sum of ulcer length in millimeters), was expressed as ED50 (dose which reduces gastric ulcerations by 50% in comparison with control rats).
Work on `CC(C)NC(=S)N1CCc2nc(N)sc2C1` [Example 2, 2-Amino-5-(isopropyl-thiocarbamoyl)-4,5,6,7-tetrahydrothiazolo[5,4-c]pyridine] yielded an ED50 of roughly 5 mg/kg. With `CNC(=O)N1CCc2nc(N)sc2C1` [Example 5, 2-Amino-5-(methyl-carbamoyl)-4,5,6,7-tetrahydrothiazolo[5,4-c]pyridine] the ED50 was 1.2 mg/kg. Work on `CC(C)NC(=S)N1CCc2nc(NC(=N)N)sc2C1` [Example 15, 2-Guanidino-5-(isopropyl-thiocarbamoyl)-4,5,6,7-tetrahydrothiazolo[5,4-c]pyridine] yielded an ED50 of 0.5 mg/kg. `CC(C)NC(=O)N1CCc2nc(NC(=N)N)sc2C1` [Example 16, 2-Guanidino-5-(isopropyl-carbamoyl)-4,5,6,7-tetrahydrothiazolo[5,4-c]pyridine] showed an ED50 of 0.017 mg/kg. `N=C(N)Nc1nc2c(s1)CN(C(=O)NC1CC1)CC2` [Example 22, 2-Guanidino-5-(cyclopropyl-carbamoyl)-4,5,6,7-tetrahydrothiazolo[5,4,-c]pyridine] showed an ED50 of 0.08 mg/kg. `CNC(=C[N+](=O)[O-])NCCSCc1ccc(CN(C)C)o1` [Ranitidine, reference compound] showed an ED50 of 0.5 mg/kg.

System: duodenal ulcers induced in rats by cysteamine
Test: inhibition of duodenal ulcers induced in rats by cysteamine
Assay type: in vivo
Conditions: po, rat
Procedure: The inhibition of duodenal ulcers, induced in rats by cysteamine, was evaluated for the tested compounds as percentage inhibition of ulcer index [sum of the lesioned areas per rat (mm^2)] according to the method of Fujii Y. et al, Jap. J. Pharm. 25, 663, 1975, and expressed as ED50.
Compound `CC(C)NC(=O)N1CCc2nc(NC(=N)N)sc2C1` [Example 16, 2-Guanidino-5-(isopropyl-carbamoyl)-4,5,6,7-tetrahydrothiazolo[5,4-c]pyridine] has an ED50 of 0.4 mg/kg. For `N=C(N)Nc1nc2c(s1)CN(C(=O)NC1CC1)CC2` [Example 22, 2-Guanidino-5-(cyclopropyl-carbamoyl)-4,5,6,7-tetrahydrothiazolo[5,4,-c]pyridine], the ED50 was 0.3 mg/kg. For `CNC(=C[N+](=O)[O-])NCCSCc1ccc(CN(C)C)o1` [Ranitidine, reference compound], the ED50 was 10.7 mg/kg.

Reference: patent US4624956A, “Ulcer and gastric secretion inhibiting 4,5,6,7-tetrahydrothiazole[5,4-c]pyridine derivatives” (priority 1983, dated 1986)
